Measurements reported in ChEMBL document CHEMBL1201862, “PubChem BioAssay data set” (2004).
The source made the active and inactive calls.

What was measured:
[1] = molecular target: T1, Caspase-3 (Homo sapiens, UniProt P42574); experiment: Dose-response confirmation of uHTS inhibitor hits of Sentrin-Specific Protease 8 in a Caspase-3 Fluorescence assay.; format: functional
T1 sequence (P42574 whole entry): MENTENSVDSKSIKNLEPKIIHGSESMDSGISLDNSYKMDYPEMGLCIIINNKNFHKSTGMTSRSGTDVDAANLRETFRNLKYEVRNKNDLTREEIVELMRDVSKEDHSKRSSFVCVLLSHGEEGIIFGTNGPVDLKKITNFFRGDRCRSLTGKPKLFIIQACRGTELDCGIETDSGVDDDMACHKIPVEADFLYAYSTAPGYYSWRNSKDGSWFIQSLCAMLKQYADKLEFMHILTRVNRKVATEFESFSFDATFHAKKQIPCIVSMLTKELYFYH

[2] = molecular target: T2, Sentrin-specific protease 8 (Homo sapiens, UniProt Q96LD8); format: functional
T2 sequence (Q96LD8 whole entry): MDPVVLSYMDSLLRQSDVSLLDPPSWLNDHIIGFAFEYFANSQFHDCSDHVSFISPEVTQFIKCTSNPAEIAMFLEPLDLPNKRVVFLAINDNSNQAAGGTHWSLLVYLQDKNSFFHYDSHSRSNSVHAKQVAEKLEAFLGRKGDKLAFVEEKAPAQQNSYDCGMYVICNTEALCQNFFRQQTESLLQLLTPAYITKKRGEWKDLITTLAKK

[3] = molecular target: T2, Sentrin-specific protease 8; format: functional; remark: listed apart in the source
[4] = molecular target: 26S proteasome non-ATPase regulatory subunit 14 (Homo sapiens, UniProt O00487); experiment: inhibition of proteasome subunit RPN11 – biochemical, fluorescence polarization, uHTS hits, confirmation (AID 602368); format: functional
26S proteasome non-ATPase regulatory subunit 14, sequence (O00487 whole entry): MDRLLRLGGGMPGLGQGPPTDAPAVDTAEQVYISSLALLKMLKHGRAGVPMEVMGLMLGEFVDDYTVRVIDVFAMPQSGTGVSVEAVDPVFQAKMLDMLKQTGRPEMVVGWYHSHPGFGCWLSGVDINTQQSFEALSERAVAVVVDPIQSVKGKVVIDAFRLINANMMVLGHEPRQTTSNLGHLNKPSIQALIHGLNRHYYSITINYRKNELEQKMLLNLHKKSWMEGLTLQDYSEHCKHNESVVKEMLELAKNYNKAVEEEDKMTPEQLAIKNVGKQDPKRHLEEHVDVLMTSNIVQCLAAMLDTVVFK

[5] = molecular target: Prothrombin (Bos taurus, UniProt P00735); experiment: thrombin inhibition, dose response, biochemical, fluorescence polarization, uHTS hits (AID 602369); format: functional
[6] = molecular target: 72 kDa type IV collagenase (Homo sapiens, UniProt P08253); experiment: Dose Response validation of uHTS RPN11 inhibitor hits using a MMP-2 Fluorescence assay.; format: functional
72 kDa type IV collagenase, sequence (P08253 whole entry): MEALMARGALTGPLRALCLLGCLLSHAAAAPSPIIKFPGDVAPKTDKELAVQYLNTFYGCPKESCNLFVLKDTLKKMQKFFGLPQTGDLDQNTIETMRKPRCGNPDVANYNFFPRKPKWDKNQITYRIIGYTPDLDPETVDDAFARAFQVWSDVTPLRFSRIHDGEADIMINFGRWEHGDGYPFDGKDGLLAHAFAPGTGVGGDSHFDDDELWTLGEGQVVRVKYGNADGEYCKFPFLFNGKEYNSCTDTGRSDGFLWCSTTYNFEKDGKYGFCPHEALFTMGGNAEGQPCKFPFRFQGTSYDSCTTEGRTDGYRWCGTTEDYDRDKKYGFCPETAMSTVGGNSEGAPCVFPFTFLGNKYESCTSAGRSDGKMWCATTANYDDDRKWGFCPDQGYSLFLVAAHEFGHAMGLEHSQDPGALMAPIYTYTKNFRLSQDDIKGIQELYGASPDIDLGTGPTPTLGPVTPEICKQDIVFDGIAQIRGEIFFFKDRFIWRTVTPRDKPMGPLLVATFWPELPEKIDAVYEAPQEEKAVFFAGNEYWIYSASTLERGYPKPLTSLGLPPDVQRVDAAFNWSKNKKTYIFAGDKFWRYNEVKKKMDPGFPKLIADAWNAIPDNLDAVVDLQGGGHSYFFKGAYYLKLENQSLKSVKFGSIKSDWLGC

[7] = molecular target: Tyrosine-protein phosphatase non-receptor type 22 (Homo sapiens, UniProt Q9Y2R2); experiment: PTPN22 phosphatase inhibition, dose response, selectivity assay for STEP inhibitor project, biochemical (AID 624241); format: functional
Tyrosine-protein phosphatase non-receptor type 22, sequence (Q9Y2R2 whole entry): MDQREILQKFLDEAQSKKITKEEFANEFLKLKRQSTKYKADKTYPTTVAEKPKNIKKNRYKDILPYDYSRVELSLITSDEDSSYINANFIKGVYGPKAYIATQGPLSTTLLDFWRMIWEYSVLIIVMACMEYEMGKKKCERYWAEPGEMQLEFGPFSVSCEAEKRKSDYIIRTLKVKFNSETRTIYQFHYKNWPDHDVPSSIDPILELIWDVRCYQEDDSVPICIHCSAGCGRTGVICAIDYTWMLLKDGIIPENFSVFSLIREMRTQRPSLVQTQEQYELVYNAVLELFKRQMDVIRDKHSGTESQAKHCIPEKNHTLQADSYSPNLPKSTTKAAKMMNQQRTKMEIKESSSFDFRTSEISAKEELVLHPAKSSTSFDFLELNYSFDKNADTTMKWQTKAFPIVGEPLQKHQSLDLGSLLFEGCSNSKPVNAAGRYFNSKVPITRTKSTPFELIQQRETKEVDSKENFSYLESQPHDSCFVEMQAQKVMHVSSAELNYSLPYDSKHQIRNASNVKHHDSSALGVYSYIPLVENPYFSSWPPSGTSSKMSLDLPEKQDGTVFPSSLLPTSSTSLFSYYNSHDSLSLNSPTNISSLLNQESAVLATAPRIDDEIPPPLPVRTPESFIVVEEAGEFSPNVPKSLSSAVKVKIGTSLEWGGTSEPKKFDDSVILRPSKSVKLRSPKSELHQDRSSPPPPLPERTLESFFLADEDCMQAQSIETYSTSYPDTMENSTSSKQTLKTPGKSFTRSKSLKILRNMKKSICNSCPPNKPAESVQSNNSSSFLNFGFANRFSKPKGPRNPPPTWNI

[8] = molecular target: T3, Tyrosine-protein phosphatase non-receptor type 11 (Homo sapiens, UniProt Q06124); experiment: SHP2 phosphatase inhibition, dose response, selectivity assay for STEP inhibitor project, biochemical (AID 602367); format: functional; details: read-out: IC50_Mean
T3 sequence (Q06124 whole entry): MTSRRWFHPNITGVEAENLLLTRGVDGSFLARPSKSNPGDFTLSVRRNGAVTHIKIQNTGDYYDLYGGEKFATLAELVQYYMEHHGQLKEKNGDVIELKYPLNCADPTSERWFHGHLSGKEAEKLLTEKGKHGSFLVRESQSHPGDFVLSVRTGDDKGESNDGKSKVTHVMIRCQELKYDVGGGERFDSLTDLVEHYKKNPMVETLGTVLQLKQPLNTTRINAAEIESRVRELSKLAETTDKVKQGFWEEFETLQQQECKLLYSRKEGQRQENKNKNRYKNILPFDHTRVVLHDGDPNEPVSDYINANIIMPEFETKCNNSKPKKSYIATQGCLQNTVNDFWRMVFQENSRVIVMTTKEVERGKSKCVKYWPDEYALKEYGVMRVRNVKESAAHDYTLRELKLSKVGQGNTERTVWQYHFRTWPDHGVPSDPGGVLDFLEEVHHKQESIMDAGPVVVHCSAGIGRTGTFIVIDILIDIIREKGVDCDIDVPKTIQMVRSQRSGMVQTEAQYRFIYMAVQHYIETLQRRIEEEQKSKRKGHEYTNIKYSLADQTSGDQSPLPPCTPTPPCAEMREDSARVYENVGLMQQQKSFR

[9] = molecular target: T4, Tyrosine-protein phosphatase non-receptor type 5 (Homo sapiens, UniProt P54829); experiment: STEP phosphatase inhibitors, confirmation, biochemical, fluorescence intensity, uHTS hits (AID 602372); format: functional; details: read-out: IC50_Mean
T4 sequence (P54829 whole entry): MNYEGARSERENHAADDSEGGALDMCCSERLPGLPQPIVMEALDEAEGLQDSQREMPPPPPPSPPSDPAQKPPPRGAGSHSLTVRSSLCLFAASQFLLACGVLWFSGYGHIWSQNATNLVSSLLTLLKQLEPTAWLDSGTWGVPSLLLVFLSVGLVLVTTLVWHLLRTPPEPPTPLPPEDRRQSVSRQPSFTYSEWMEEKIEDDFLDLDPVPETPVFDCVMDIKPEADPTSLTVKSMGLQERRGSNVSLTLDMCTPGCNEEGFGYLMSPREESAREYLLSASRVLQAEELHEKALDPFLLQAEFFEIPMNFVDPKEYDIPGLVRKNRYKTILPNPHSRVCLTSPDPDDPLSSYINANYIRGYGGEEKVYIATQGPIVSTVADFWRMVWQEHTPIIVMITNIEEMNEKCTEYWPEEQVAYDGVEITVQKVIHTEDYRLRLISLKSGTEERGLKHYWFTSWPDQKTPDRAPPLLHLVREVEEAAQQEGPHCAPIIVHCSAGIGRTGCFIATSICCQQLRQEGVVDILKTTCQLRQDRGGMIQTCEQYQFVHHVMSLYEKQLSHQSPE

[10] = molecular target: Dual specificity protein phosphatase 3 (Homo sapiens, UniProt P51452); experiment: VHR phosphatase inhibition, dose response, selectivity assay for STEP inhibitor project, biochemical (AID 602374); format: functional; details: read-out: IC50_Mean
Dual specificity protein phosphatase 3, sequence (P51452 whole entry): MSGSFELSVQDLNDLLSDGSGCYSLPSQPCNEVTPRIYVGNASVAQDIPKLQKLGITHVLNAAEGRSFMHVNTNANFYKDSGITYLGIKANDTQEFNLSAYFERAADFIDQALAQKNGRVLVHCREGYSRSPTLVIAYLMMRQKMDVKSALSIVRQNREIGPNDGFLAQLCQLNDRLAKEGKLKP

[11] = system: Vero; experiment: cells; format: functional; details: Chlorocebus sabaeus
[12] = molecular target: T5, Corticotropin-releasing factor receptor 2/Corticotropin-releasing factor-binding protein (Homo sapiens, UniProt P24387+Q13324); experiment: activators of CRF receptor 2 with binding protein – uHTS hits, confirmation (AID 602473); format: functional; details: read-out: EC50_Mean
T5 sequence (Q13324 whole entry): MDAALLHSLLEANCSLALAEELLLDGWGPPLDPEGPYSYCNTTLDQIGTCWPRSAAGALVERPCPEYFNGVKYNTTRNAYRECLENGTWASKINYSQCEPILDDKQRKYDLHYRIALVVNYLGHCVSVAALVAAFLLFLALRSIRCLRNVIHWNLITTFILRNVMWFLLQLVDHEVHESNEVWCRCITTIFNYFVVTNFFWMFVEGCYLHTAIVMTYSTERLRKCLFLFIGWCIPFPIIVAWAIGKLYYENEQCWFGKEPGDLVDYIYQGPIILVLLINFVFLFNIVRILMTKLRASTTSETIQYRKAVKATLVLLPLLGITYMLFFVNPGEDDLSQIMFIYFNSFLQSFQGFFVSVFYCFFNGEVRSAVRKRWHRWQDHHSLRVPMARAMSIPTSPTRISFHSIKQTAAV
T5 sequence (P24387 whole entry): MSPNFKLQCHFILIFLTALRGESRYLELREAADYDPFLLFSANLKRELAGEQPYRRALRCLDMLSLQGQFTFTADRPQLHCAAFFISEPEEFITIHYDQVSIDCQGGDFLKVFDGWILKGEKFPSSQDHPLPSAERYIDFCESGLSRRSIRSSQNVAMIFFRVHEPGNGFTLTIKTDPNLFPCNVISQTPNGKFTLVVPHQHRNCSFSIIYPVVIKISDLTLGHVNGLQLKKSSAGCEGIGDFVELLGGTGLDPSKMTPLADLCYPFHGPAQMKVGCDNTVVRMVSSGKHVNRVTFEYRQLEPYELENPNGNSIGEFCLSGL

[13] = molecular target: DNA repair and recombination protein RAD54-like (Homo sapiens, UniProt Q92698); experiment: inhibitors of human RAD54 branch migration, confirmation, biochemical, fluorescence, cherry-picked samples, dose series (AID 651657); format: functional
DNA repair and recombination protein RAD54-like, sequence (Q92698 whole entry): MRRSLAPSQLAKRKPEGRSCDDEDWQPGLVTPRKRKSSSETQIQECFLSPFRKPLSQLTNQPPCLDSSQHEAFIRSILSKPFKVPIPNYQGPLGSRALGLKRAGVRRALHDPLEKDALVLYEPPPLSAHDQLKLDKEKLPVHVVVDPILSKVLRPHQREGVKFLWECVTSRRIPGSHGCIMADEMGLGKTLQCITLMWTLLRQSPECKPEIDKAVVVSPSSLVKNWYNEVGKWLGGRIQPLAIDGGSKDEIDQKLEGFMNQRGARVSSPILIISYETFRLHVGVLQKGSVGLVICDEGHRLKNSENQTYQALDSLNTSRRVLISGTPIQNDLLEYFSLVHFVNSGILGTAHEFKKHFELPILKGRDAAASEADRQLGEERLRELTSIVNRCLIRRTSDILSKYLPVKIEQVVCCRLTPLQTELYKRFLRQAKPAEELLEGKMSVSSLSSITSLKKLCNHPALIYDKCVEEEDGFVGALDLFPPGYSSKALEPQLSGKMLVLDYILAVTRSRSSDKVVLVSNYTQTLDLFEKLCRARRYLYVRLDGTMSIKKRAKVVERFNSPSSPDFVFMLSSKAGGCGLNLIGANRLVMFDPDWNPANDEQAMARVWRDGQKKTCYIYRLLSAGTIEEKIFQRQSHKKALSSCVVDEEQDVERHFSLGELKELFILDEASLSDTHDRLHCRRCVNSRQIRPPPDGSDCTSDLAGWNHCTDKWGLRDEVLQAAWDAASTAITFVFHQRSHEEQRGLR

[14] = molecular target: T6, DNA repair protein RAD52 homolog (Homo sapiens, UniProt P43351); format: functional, biochemical
T6 sequence (P43351 whole entry): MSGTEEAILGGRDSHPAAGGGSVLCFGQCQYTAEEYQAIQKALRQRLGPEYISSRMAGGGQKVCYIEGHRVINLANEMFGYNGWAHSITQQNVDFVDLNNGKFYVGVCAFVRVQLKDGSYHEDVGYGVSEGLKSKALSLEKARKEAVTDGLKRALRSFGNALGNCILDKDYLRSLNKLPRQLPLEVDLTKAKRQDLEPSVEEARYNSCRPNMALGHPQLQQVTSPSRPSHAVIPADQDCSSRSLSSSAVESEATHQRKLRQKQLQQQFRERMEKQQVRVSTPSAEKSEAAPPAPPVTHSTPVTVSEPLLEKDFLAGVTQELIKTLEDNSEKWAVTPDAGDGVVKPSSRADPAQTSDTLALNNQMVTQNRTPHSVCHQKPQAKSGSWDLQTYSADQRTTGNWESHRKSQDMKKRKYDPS

O=C(CCC(=O)N1CCc2ccccc2C1)N1CCN(S(=O)(=O)c2ccccc2)CC1 was tested, and the IC50 [1] was 50 µM (active), the IC50 [2] was 12.9 µM (active) and the IC50 [3] was 22.2 µM (active).
CCn1c(SCC(=O)c2c[nH]c3ccccc23)nnc1-c1cccs1 was tested, and the IC50 [4] was 24.3 µM (active), the IC50 [5] was 60.5 µM (active) and the IC50 [6] was > 100 µM (inactive).
In the case of COc1ccccc1NS(=O)(=O)c1cc(NC(=O)c2sccc2C)ccc1N1CCCC1, the IC50 [7] is reported as 25.9 µM (inactive), the IC50 [8] is reported as 0.665 µM (active) and the IC50 [9] is reported as 2.73 µM (active). For the same compound, the IC50 [10] was 0.163 µM (active).
With Cc1ccc(N2C(=O)/C(=C\NN3CCCCC3c3cccnc3)C(=O)NC2=S)cc1 (stereo not drawn) the IC50 [4] was 31.7 µM (active), the IC50 [5] was 71.3 µM (active) and the IC50 [6] was > 100 µM (inactive).
With O=c1c2ccccc2sc2ccc(NCCCN3CCOCC3)cc12 the CC50 [11] was > 25 µM (active), the EC50 [12] was 7.98 µM (active) and the AC50 [13] was 31.2 µM (active).
For N=c1n(CCN2CCCCC2)c2ccccc2n1CC(=O)c1cccc([N+](=O)[O-])c1, the AC50 [14] was 9.9 µM (active) and the AC50 [13] was 23.7 µM (active).
